In series [1] the target is T1, α1G T-type calcium channel (Homo sapiens, UniProt O43497).
T1 construct: host or cells: HEK293
Briefly: Assay for % inhibiting activity against T-type calcium channel using FDSS6000 (fluo-3 calcium imaging, KCl activation). The format is cell-based. The method, boiled down: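 HEK293 cells stably expressing α1G and Kir2.1 loaded with 5 μM fluo-3/AM, then in HEPES buffer (pH 7.4) with 10 mM CaCl2. Compound applied 75 s before 75 mM KCl; intracellular Ca2+ read as […] area, % inhibition relative to untreated control.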

The target in series [2] is T1, α1G T-type calcium channel. Briefly: Electrophysiological whole cell patch clamp measurement of T-type calcium channel current in HEK293 cells. The format is cell-based. To be noted: HEK293 cells expressing α1G; for HEK293cell (% Inhibition) 10 μM: inhibition of peak current; for IC50: read-out: IC50 (a1G). As for the experimental part: In the present invention, in order to examine an efficient inhibitor against the T-type calcium channel, a primary assay for T-type calcium channel inhibiting activity was conducted by a high-efficient assay using FDSS6000, wherein mammal HEK293 cell lines (originated from human kidney carcinoma cells) that specifically express α1G of the T-type calcium channel was used for primary assay. Through the primary assay, compounds that show meaningful inhibition effects were selected. The selected compounds were used in a second assay for T-type calcium channel inhibiting activity using an electrophysiological whole cell patch clamp method, wherein mammal HEK293 cell lines (originated from human kidney carcinoma cells) that specifically express α1G of the T-type calcium channel was used for the second assay. Mibefradil, which had been developed as a T-type calcium channel inhibitor, was used as a reference.
10% Fetal bovine serum (FBS) and 1% penicillin/streptomycin (v/v) were added to Dulbecco's modified Eagle's medium (DMEM), to be used as a media solution. The cells were cultured in an incubator under a wet condition of 95% air/5% CO2 and a temperature of 36.5° C. The media solution was refreshed every 3 or 4 days, and the cells were sub-cultured every week. Only the cells that expressed α1G T-type calcium channel were cultured using a G-418 (0.5 mg/ml) solution. The recording of the cells used in the T-type calcium channel activity analysis was conducted at 2-7 days after the cells were culturing on a cover slip coated with poly-L-lysine (0.5 mg/ml) when conducting every sub-culture. For analysis at a single cell level, the T-type calcium channel current was measured by an electrophysiological whole cell patch clamp method using EPC-9 amplifier (HEKA, German).
As solutions for analyzing T-type calcium channel activity, a solution including NaCl 140 mM, CaCl2 2 mM, and HEPES10 mM (pH 7.4, Sigma; 4-(2-hydroxyethyl)piperazine-1-ethanesulfonic acid) was used as an extracellular solution, and a solution including KCl 130 mM, HEPES 10 mM (Sigma), EGTA 11 mM (ethylene glycol-bis(2-aminoethylether)-N,N,N′,N′-tetraacetic acid, Sigma), and MgATP 5 mM (pH 7.4, Sigma) was used as an intracellular solution. The protocol for T-type calcium channel activity that is activated at low voltage is as follows. A micro-glass electrode with resistance of 3-4 MΩ wherein the above-prepared intracellular solution was filled was pricked into a single cell, to make a whole-cell recording mode. Thereafter, the cell membrane potential was fixed to −100 mV, and then the inward current due to the T-type calcium channel activity when hypopolarizing to −30 mV (50 ms duration) was measured every 10 seconds.
Each compound to be tested was dissolved in 100% dimethylsulfoxide (DMSO) to make a 10 mM stock solution. The effect of the compound on the T-type calcium channel current compound was initially examined in the stock solution with the 1000-times diluted concentration of 10 μM (containing 0.1% DMSO) and then examined in the solution with the concentration for IC50 measurement (mostly 0.1 to 100 μM), to obtain an IC50 value. More specifically, the cells were treated in each compound together with the extracellular solution for 30 to 60 seconds, and the inhibition level of peak current induced by the compound was calculated as a percentage, to obtain the % inhibition value as shown in Table 4.
Background: The patch-clamp technique gives a direct electrical read-out from membranes.

Where [3] appears, read: 10 μM, HEK293 cells stably expressing α1G T-type calcium channel and Kir2.1, compounds of the examples.
The mark [4] stands for this setting: HEK293, 10 μM, HEK293 cells stably expressing α1G T-type calcium channel and Kir2.1, compounds of the examples, read-out: FDSS (% inhibition)/10uM.

Read-outs that look alike come from different tables or passages of the source.

T1 sequence (O43497 whole entry): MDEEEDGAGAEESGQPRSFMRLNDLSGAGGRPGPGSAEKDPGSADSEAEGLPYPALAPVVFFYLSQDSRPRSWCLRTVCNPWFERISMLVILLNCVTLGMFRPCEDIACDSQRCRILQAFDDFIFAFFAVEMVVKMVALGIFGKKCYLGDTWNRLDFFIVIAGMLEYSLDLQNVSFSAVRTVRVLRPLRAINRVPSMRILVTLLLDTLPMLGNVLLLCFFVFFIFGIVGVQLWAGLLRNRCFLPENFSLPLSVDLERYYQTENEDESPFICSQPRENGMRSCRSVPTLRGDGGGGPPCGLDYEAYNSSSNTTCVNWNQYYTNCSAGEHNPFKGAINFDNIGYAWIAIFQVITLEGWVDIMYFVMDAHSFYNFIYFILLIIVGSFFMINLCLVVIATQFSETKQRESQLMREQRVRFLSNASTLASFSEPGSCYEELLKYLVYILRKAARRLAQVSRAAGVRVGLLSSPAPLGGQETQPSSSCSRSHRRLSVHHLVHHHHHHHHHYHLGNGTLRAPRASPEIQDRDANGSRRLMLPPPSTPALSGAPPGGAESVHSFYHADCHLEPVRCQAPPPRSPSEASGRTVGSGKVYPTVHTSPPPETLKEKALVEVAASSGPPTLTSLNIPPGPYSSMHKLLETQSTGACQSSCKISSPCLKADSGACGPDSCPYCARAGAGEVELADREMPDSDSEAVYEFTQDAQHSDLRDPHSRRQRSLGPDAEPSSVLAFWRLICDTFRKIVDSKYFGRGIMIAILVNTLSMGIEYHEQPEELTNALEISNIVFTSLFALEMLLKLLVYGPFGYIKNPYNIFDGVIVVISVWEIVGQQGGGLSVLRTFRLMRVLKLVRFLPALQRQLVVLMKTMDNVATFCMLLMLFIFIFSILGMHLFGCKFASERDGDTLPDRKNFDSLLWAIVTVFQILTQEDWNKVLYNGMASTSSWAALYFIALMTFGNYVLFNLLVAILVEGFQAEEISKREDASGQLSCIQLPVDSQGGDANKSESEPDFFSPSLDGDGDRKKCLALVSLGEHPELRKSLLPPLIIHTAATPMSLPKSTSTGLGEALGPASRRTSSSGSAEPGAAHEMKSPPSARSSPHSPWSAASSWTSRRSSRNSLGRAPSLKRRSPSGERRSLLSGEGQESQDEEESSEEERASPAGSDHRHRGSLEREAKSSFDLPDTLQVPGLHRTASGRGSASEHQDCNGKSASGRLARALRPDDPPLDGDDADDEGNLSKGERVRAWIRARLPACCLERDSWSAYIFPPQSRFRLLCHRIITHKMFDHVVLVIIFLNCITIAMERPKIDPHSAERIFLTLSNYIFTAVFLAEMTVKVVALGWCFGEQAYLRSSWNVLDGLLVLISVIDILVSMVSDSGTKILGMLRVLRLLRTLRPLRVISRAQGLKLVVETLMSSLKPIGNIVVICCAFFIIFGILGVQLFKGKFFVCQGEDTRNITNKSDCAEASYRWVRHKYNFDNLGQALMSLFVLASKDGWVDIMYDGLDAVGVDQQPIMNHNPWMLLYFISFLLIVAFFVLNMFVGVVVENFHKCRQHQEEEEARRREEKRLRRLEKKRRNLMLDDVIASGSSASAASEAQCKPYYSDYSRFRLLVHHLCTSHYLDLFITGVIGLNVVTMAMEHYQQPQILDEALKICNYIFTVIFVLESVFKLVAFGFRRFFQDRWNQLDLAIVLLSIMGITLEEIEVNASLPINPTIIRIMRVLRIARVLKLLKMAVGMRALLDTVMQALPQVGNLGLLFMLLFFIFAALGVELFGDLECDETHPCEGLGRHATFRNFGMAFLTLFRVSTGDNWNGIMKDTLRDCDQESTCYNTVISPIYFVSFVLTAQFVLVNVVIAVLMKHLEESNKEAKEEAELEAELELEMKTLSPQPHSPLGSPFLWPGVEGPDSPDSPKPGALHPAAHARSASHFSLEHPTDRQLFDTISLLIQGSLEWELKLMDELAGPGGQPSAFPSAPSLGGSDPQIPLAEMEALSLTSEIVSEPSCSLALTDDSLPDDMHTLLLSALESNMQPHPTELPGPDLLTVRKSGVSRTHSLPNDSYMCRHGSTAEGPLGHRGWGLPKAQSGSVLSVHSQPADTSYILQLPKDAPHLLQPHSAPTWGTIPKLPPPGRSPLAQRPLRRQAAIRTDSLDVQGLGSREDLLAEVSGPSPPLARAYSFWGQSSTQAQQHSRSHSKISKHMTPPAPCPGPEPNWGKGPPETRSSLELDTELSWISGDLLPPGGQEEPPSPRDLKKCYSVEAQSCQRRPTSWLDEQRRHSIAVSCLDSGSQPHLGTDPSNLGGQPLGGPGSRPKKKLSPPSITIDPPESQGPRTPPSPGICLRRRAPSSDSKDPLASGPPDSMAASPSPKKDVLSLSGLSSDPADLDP

`CN1C(=NC2CCCCCC2)SCC1CC(=O)Nc1cc(Cl)cc(Cl)c1.Cl` (centres unmarked) [KHG24125, (2-cycloheptylimino-3-methyl-1,3-thiazolidine-4-yl)-N-(3,5- ? chlorophenyl)-acetamide hydrochloride]: the “FDSS (% inhibition)/10uM” value in series [1] (setting [3]) was 71.79%. Besides, in series [2], the “HEK293cell (% Inhibition) 10 μM” value was found to be 95.6 ± 1.2% and the IC50 came out at 80 ± 10 nM.
With `CCCN1C(=NC23CC4CC(CC(C4)C2)C3)SCC1CC(=O)Nc1ccc(Oc2ccccc2)cc1.Cl` (centres unmarked) [KHG24815, [2-(1-adamantylimino)-3-n-propyl-1,3-thiazolidine-4-yl]-N-(4-phenoxyphenyl)-acetamide hydrochloride], the melting point was 135 °C. Also, the inhibition at 10 µM in series [1] (setting [4]) came out at 32.7%.
Turning to `CCCN1C(=NC23CC4CC(CC(C4)C2)C3)SCC1CC(=O)Nc1cc(Cl)ccc1F.Cl` (centres unmarked) [KHG24817, [2-(1-adamantylimino)-3-n-propyl-1,3-thiazolidine-4-yl]-N-(5-chloro-2-fluorophenyl)-acetamide hydrochloride], the melting point came out at 130 °C. Besides, the inhibition at 10 µM in series [1] (setting [4]) was found to be 60.5%.
The matching figures for `CCCN1C(=NC23CC4CC(CC(C4)C2)C3)SCC1CC(=O)Nc1ccc(C)cc1Cl.Cl` (centres unmarked) [KHG24818, [2-(1-adamantylimino)-3-n-propyl-1,3-thiazolidine-4-yl]-N-(2-chloro-4-methylphenyl)-acetamide hydrochloride]: 201 °C and 68.2%.
The matching figures for `CCN1C(=NC23CC4CC(CC(C4)C2)C3)SCC1CC(=O)Nc1ccc(C(C)C)cc1.Cl` (centres unmarked) [KHG24819, [2-(1-adamantylimino)-3-ethyl-1,3-thiazolidine-4-yl]-N-(4-isopropylphenyl)-acetamide hydrochloride]: 158 °C and 69.2%.
Taken in the same sequence, the figures for `CCCCc1ccc(NC(=O)CC2CSC(=NC34CC5CC(CC(C5)C3)C4)N2CC)cc1.Cl` (centres unmarked) [KHG24820, [2-(1-adamantylimino)-3-ethyl-1,3-thiazolidine-4-yl]-N-(4-n-butylphenyl)-acetamide hydrochloride] were 141 °C and 58%.
Compound `CC(C)N1C(=NC23CC4CC(CC(C4)C2)C3)SCC1CC(=O)Nc1ccc(Cl)cc1.Cl` (centres unmarked) [KHG24823, [2-(1-adamantylimino)-3-isopropyl-1,3-thiazolidine-4-yl]-N-(4-chlorophenyl)-acetamide hydrochloride] showed a melting point of 236 °C. In addition, the inhibition at 10 µM in series [1] (setting [4]) is 54.1%.
The matching figures for `CC(C)N1C(=NC23CC4CC(CC(C4)C2)C3)SCC1CC(=O)Nc1ccc(C(F)(F)F)cc1.Cl` (centres unmarked) [KHG24826, [2-(1-adamantylimino)-3-isopropyl-1,3-thiazolidine-4-yl]-N-(4-trifluoromethylphenyl)-acetamide hydrochloride]: 246 °C and 46.5%.
Taken in the same sequence, the figures for `CC(C)N1C(=NC23CC4CC(CC(C4)C2)C3)SCC1CC(=O)Nc1cc(C(F)(F)F)cc(C(F)(F)F)c1.Cl` (centres unmarked) [KHG24828, [2-(1-adamantylimino)-3-isopropyl-1,3-thiazolidine-4-yl]-N-(3,5-ditrifluoromethylphenyl)-acetamide hydrochloride] were 233 °C and 35.4%.
Regarding `CC(C)N1C(=NC23CC4CC(CC(C4)C2)C3)SCC1CC(=O)Nc1ccc(CF)cc1.Cl` (centres unmarked) [KHG24829, [2-(1-adamantylimino)-3-isopropyl-1,3-thiazolidine-4-yl]-N-(4-fluoromethylphenyl)-acetamide hydrochloride], the melting point came out at 227 °C. The inhibition at 10 µM in series [1] (setting [4]) was found to be 69%.
The matching figures for `Cc1ccc(NC(=O)CC2CSC(=NC34CC5CC(CC(C5)C3)C4)N2C(C)C)cc1.Cl` (centres unmarked) [KHG24831, [2-(1-adamantylimino)-3-isopropyl-1,3-thiazolidine-4-yl]-N-(4-methylphenyl)-acetamide hydrochloride]: 220 °C and 57%.
Compound `CCc1ccc(NC(=O)CC2CSC(=NC34CC5CC(CC(C5)C3)C4)N2C(C)C)cc1.Cl` (centres unmarked) [KHG24832, [2-(1-adamantylimino)-3-isopropyl-1,3-thiazolidine-4-yl]-N-(4-ethylphenyl)-acetamide hydrochloride] displayed a melting point of 171 °C. In series [1] (setting [4]), the inhibition at 10 µM came to 46.5%.
In turn, `CC(C)N1C(=NC23CC4CC(CC(C4)C2)C3)SCC1CC(=O)Nc1ccc(Oc2ccccc2)cc1.Cl` (centres unmarked) [KHG24833, [2-(1-adamantylimino)-3-isopropyl-1,3-thiazolidine-4-yl]-N-(4-phenoxyphenyl)-acetamide hydrochloride] registered a melting point of 164 °C. Also, the inhibition at 10 µM in series [1] (setting [4]) worked out at 37%.
Taken in the same sequence, the figures for `CC(C)N1C(=NC23CC4CC(CC(C4)C2)C3)SCC1CC(=O)Nc1ccc(Cl)cc1F.Cl` (centres unmarked) [KHG24834, [2-(1-adamantylimino)-3-isopropyl-1,3-thiazolidine-4-yl]-N-(4-chloro-2-fluorophenyl)-acetamide hydrochloride] were 228 °C and 65.7%.
In the case of `CC(C)N1C(=NC23CC4CC(CC(C4)C2)C3)SCC1CC(=O)Nc1cc(Cl)ccc1F.Cl` (centres unmarked) [KHG24835, [2-(1-adamantylimino)-3-isopropyl-1,3-thiazolidine-4-yl]-N-(5-chloro-2-fluorophenyl)-acetamide hydrochloride], the melting point is 116 °C. The inhibition at 10 µM in series [1] (setting [4]) is 55.2%.
As to `Cc1ccc(NC(=O)CC2CSC(=NC34CC5CC(CC(C5)C3)C4)N2C(C)C)cc1Cl.Cl` (centres unmarked) [KHG24836, [2-(1-adamantylimino)-3-isopropyl-1,3-thiazolidine-4-yl]-N-(5-chloro-4-methylphenyl)-acetamide hydrochloride], the melting point turned out to be 231 °C. In series [1] (setting [4]), the inhibition at 10 µM came to 48.9%.
`CCCN1C(=NC23CC4CC(CC(C4)C2)C3)SCC1CC(=O)Nc1cc([N+](=O)[O-])ccc1F.Cl` (centres unmarked) [KHG24839, [2-(1-adamantylimino)-3-n-propyl-1,3-thiazolidine-4-yl]-N-(2-fluoro-5-nitrophenyl)-acetamide hydrochloride] registered a melting point of 145 °C. The inhibition at 10 µM in series [1] (setting [4]) was found to be 59.7%.
The matching figures for `CC(C)N1C(=NC23CC4CC(CC(C4)C2)C3)SCC1CC(=O)Nc1cc([N+](=O)[O-])ccc1F.Cl` (centres unmarked) [KHG24840, [2-(1-adamantylimino)-3-isopropyl-1,3-thiazolidine-4-yl]-N-(2-fluoro-5-nitrophenyl)-acetamide hydrochloride]: 131 °C and 49.4%.
Taken in the same sequence, the figures for `CN1C(=NC2C3CC4CC(C3)CC2C4)SCC1CC(=O)Nc1ccc(F)cc1.Cl` (centres unmarked) [KHG24842, [2-(2-adamantylimino)-3-methyl-1,3-thiazolidine-4-yl]-N-(4-fluorophenyl)-acetamide hydrochloride] were 154 °C and 59.8%.
In turn, `CN1C(=Nc2cccc(F)c2)SCC1CC(=O)Nc1ccc(Cl)cc1F.Cl` (centres unmarked) [KHG32076, [2-(3-fluorophenylimino)-3-methyl-1,3-thiazolidine-4-yl]-N-(4-chloro-2-fluorophenyl)-acetamide hydrochloride] had a melting point of 229 to 231 °C. Also, the inhibition at 10 µM in series [1] (10 μM, FDSS (% inhibition), comparative compounds where R6 is a phenyl group, read-out: FDSS) stood at 20.5%.
On to “(2-cycloheptylimino-3-methyl-1,3-thiazolidine-4-yl)-N-(2,4-difluorophenyl)-acetamide hydrochloride [KHG24127]”, for which the “FDSS (% inhibition)/10uM” value in series [1] (setting [3]) was determined as 49.69%. For the same compound, in series [2], the “HEK293cell (% Inhibition) 10 μM” value is 80.8 ± 0.6% and the IC50 was 2660 ± 330 nM.

Broadly, the IC50 is the point on the concentration scale where inhibition reaches its midpoint. For orientation: melting point means the temperature of the solid-liquid transition.

These data come from patent US7998989B2, “2-Imino-1,3-thiazoline-based compounds and T-type calcium channel inhibitors containing the same” (Korea Institute of Science and Technology, priority 2007, dated 2011).
